In patent US20170067909A1, “ASSAY-READY RECOMBINANT CELLS TRANSIENTLY OVEREXPRESSING GENES ENCODING DRUG TRANSPORTER PROTEINS AND/OR DRUG METABOLIZING ENZYMES” (Corning Incorporated, priority 2012, published 2017):
Where two headings read alike, the source gives them in different places.

Experiments:
rat Oatp1b2 = molecular target: T1, rat Oatp1b2 (Rattus norvegicus, UniProt Q9QZX8)
T1 sequence (Q9QZX8 1-687): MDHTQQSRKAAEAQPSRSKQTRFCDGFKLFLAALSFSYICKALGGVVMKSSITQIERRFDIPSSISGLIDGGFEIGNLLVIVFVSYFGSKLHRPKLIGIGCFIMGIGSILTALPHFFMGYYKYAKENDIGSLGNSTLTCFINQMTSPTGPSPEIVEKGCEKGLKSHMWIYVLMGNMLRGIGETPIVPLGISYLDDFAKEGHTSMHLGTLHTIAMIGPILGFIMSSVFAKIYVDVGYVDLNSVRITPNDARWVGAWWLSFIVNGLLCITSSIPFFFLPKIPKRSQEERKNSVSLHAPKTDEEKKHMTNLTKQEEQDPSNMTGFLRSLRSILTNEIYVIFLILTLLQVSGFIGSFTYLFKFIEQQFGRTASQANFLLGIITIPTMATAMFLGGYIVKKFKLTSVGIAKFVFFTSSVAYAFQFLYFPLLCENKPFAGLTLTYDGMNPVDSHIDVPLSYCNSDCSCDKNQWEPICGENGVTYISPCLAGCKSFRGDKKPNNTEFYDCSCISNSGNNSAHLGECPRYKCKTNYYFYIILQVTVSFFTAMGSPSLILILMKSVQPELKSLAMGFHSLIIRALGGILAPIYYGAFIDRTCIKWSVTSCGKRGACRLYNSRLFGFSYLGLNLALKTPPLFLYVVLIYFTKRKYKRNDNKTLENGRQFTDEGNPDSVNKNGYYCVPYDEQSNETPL

OATP1B1*1a [1] = molecular target: T2, OATP1B1*1a (Homo sapiens, UniProt Q9Y6L6); settings: read-out: Km, Literature Report; HEK293 cells; P. Sharma, et al. Xenobiotica 40:24. 2010; cited from earlier work
T2 sequence (Q9Y6L6 1-691): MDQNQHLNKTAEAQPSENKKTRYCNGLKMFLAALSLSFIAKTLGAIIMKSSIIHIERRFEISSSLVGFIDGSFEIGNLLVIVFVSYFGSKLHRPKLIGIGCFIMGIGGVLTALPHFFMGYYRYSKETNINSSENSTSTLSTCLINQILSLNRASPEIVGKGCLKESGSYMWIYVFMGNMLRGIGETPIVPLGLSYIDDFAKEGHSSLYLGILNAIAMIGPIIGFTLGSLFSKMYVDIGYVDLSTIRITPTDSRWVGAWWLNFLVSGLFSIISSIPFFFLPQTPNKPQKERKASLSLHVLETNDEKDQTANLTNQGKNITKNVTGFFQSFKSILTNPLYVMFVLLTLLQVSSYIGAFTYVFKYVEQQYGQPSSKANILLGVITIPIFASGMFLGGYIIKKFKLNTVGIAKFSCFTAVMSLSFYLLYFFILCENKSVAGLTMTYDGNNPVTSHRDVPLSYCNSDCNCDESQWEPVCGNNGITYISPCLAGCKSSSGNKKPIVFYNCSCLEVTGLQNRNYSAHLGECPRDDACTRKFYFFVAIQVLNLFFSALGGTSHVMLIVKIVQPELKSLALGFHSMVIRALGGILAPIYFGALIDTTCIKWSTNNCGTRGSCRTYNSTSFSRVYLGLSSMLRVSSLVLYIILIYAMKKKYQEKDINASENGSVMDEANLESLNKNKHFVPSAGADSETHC

OATP1B1*1a [2] = molecular target: T2, OATP1B1*1a; settings: read-out: Km, SLC Transporter Cells; substrate 0.25 to 40 μM, incubation 1 min
[3] = molecular target: T3, Organic Anion-Transporting Polypeptide 1B1 (Homo sapiens, UniProt Q9Y6L6); assay: Positive control plated (adherent) assay, Corning TransportoCells OATP1B1*1a; format: in vitro ADME; settings: PC: Plated Assay, Seeded at 250k/well (24-well), assay at 48 hours; 5 uM FMTX, 10 min
T3 construct: host or cells: HEK293 cells, gene delivered by electroporation
T3 sequence (Q9Y6L6 1-691): T2 sequence (Q9Y6L6 1-691)
Excerpt: A positive control was provided via an adherent assay for characterizing the activity of a drug transporter protein in cryopreserved, Corning® TransportoCells™. Corning® TransportoCells™ transiently transfected with the gene OATP1B1*1a were obtained from Corning Life Sciences (Cat. No. 354859). In order to obtain suitable expression of the Organic Anion-Transporting Polypeptide 1B1 encoded by OATP1B1*1a, the Corning® TransportoCells™ were thawed, cultured, and harvested. […] The cells were cultured via plating in a 24-well PDL-Treated Plate (cell density of 250K cells/well; obtained from Corning Life Sciences) with plating medium for 48 hours at 37° C. and 8% CO2. The plating medium is detailed in Table 16. After 24 hours, cells were refed by 400 uL plating media supplemented with 5 mM sodium butyrate (obtained from Sigma). After 48 hours, cells were washed three times using 0.4 mL prewarmed HBSS (Corning). Then 0.3 mL substrate solution containing 5 uM FMTX were added to the cells and the cells were incubated for 10 min at 37 degree. After 10 min incubation time, the cells were washed 3 times using 0.4 mL cold HBSS. The cells were lysed and subjected to the BCA protein analysis and/or fluorescence analysis to characterize the activity of Organic Anion-Transporting Polypeptide 1B1.

[4] = HEK-293 cells overexpressing the transporter

Compound | uptake of substrate (in words) (monkey Oatp1b1; [4]) | Km (monkey Oatp1b1; incubation of 5 minutes, Michaelis-Menten kinetics) [µM] | Km (rat Oatp1b2) [µM] | uptake of substrate (in words) (rat Oatp1b2; [4]) | Km (OATP1B1*1a [1]) [µM] | Km (OATP1B1*1a [2]) [µM] | Uptake Activity OATP1B1 [3] [pmol/mg/min] | Uptake Ratio [3]
C[C@]12CC[C@@H]3c4ccc(O)cc4CC[C@H]3[C@@H]1CC[C@@H]2O[C@@H]1O[C@H](C(=O)O)[C@@H](O)[C@H](O)[C@H]1O [E17βG] | significant uptake | 6.3 ± 1.4 | 9.6 ± 1.9 | significant uptake | 6.3 | 6.2 | – | –
fluorescein methotrexate [FMTX] | – | – | – | – | – | – | 1.06 | 30.6
